From publication PMC9354954, “Assessing Bioavailability and Bioactivity of 4-Hydroxythiazolidine-2-Thiones, Newly Discovered Glucosinolate Degradation Products Formed During Domestic Boiling of Cabbage” (Frontiers in Nutrition, 2022) come the findings set out here.

Data set [1] in a line: Uptake and excretion from red cabbage broth, human self-experiment (24 h urine, LC-MS/MS). The following applies: male, 500 mL red cabbage broth, oral, n = 3, mean ± SD, read-out: recovery in collected urine within 24 h compared to the amount of intake. The data set is classed as in vivo. On the procedure:
To obtain the GLS degradation products allyl HTT and 4-MSOB HTT in the food matrix, a kitchen practice approach was applied. Therefore, 1.2 kg of fresh conventional red cabbage (Brassica oleracea var. capitata f. rubra) bought in a supermarket were cut into approximately 4 × 4 × 4 cm pieces and boiled for 1 h in 3 L of tap water without additives in a stainless-steel pot with a glass lid on a kitchen stove. After cooling to room temperature, three male authors of this study (27–39 years) drank 500 mL of the red cabbage boiling solution (broth) without red cabbage pieces. […] In total, 950 μL of 1:1 diluted red cabbage boiling solution was measured in 3 different ways (each prepared as duplicates): (1) Spiked with 50 μL water, (2) spiked with 50 μL of a solution with concentrations of 1 μM for allyl HTT and 5 μM for 4-MSOB HTT, or (3) spiked with 50 μL of a solution with concentrations of 3 μM for allyl HTT and 10 μM for 4-MSOB HTT. Urine samples were measured in three different ways (each prepared as duplicates): 200 μL of undiluted urine was spiked with (1) 1 μL of water, (2) 1 μL of a solution with concentrations of 4 μM for allyl HTT and 8 μM for 4-MSOB HTT, or (3) 1.5 μL of a solution with concentrations of 4 μM for allyl HTT and 8 μM for 4-MSOB HTT. […]

Data set [2] deals with HepG2 cells. Briefly: Metabolite formation in medium after 24 h incubation with HepG2 cells (HPLC-UV, qToF). The class given is in vitro ADME, human. To be noted: 100 μM, 24 h with HepG2 cells, vs spiked medium without cells. On the procedure:
Additionally, the removed non-spiked and spiked medium after 24 h of cell incubation was measured by the UPLC-DAD system (see Section Stability of 4-Hydroxythiazolidine-2-Thiones in a Stomach Model) and HPLC method 2 at 280 ± 2 nm and after 10-fold pre-concentration, using solid-phase extraction (Chromabond®, C18, 3 mL/500 mg, Macherey-Nagel) by an HPLC-DAD-ESI-qToF system (Agilent 1290 Infinity II for the binary pump, Agilent 1290 Infinity for autosampler, degasser, column oven, Agilent 1260 Infinity for DAD detector, and Agilent 1260 Infinity II, for an isocratic pump for adding reference mass solution) using A = water and B = MeCN: 0 to 3 min 2% B, an increase to 14 min up to 98% B, holding for 5.4 min followed by a decrease to 2% B at 20 min, and re-equilibration with 2% B for 4.5 min, using a flow rate of 300 μL/min, Agilent Zorbax Eclipse Plus C8 column (see Section Stability of 4-Hydroxythiazolidine-2-Thiones in a Stomach Model), and a column oven temperature of 35°C. […]

Another data set relates to Caco-2 cells. Briefly: Cytotoxicity, neutral red uptake assay. The following applies: Caco-2, neutral red uptake assay, up to 100 μM, 24 h. The class given is cell-based, human. Here is the method:
(§1) To determine the cytotoxicity of allyl HTT and 4-MSOB HTT, HepG2 and Caco-2 cells were seeded in a 96-well TC-plate (standard F, sterile, from Sarsted, Nümbrecht, Germany) using a seeding density of 20,000 cells/well. After 24 h, the medium was exchanged to 200 μL pure medium or 200 μL medium containing allyl HTT or 4-MSOB HTT with concentrations in the range of 0.1–100 μM. The cells were treated for 24 h under cell culture conditions (prepared for three biological replicates, every 3 technical replicates). Cell viability was determined using the MTT assay and the neutral red uptake assay based on Schröter et al. ([27]). In the case of MTT assay, after 24 h of HTT treatment, 20 μL of MTT solution (75 mg MTT in 15 mL PBS) were added, and cells were incubated for 60 min under cell culture conditions. Afterward, the supernatant was removed and 100 μL of lysis buffer (5% formic acid in isopropanol) was added and the plate was shaken for 10 min at 300 rpm before measuring the absorption at 550 ± 5 nm (reference 690 ± 5 nm) by a Tecan i-control Infinite M200 PRO plate reader (Crailsheim, Germany). In the case of the neutral red uptake assay, the supernatant was removed after 24 h HTT treatment, and 100 μL neutral red solution (40 mg neutral red in 10 mL PBS, freshly diluted 1:100 with medium and incubated for 24 h under cell culture conditions) was added. After incubation of neutral red solution for 2 h under cell culture conditions, the supernatant was removed, and cells were washed with 150 μL of PBS. After removing PBS, 150 μL desorb solution (49.5% water/49.5% ethanol/1% acetic acid) was added and the plate was shaken for 10 min at 300 rpm before measuring the absorption at 540 ± 5 nm by Tecan i-control Infinite M200 PRO plate reader. The mean ± SD is used for presenting the results of three technical replicates for each data point of the three biological replicates.

Data set [3] concerns HepG2 cells. Briefly: Cytotoxicity, neutral red uptake assay. The class given is cell-based, human. To be noted: up to 100 μM, 24 h. On the procedure:
as §1

As for `C[S+]([O-])CCCCN1C(=S)SCC1O` (centres unmarked) [4-MSOB HTT, 4-hydroxy-3-(4-(methylsulfinyl)butyl)thiazolidine-2-thione], in data set [1], the dose excreted came out at 21 ± 4%. In addition, the “newly formed metabolites in spiked medium (LC-UV chromatogram)” value with HepG2 cells [2] was “a new peak was observed”. Moreover, the “effect on cell viability compared to untreated cells” value in the data set on Caco-2 cells and with HepG2 cells [3] was “did not show any effect on cell viability” throughout.

Take `C=CCN1C(=S)SCC1O` (centres unmarked) [allyl HTT, 3-allyl-4-hydroxythiazolidine-2-thione]: in data set [1], the dose excreted turned out to be 18 ± 5%. The “newly formed metabolites in spiked medium (LC-UV chromatogram)” value in the data set on HepG2 cells [2] is “did not show any additional signals”. The “effect on cell viability compared to untreated cells” value with Caco-2 cells and in the data set on HepG2 cells [3] was “did not show any effect on cell viability” in each case.
